For 5 compounds, IC50 results are on record in ChEMBL document CHEMBL1177733, “Mayamycin, a cytotoxic polyketide from a Streptomyces strain isolated from the marine sponge Halichondria panicea” (J Nat Prod, 2010).

The subject of one experiment is Cutibacterium acnes. Nature of the experiment: Antibacterial activity against Propionibacterium acnes DSM 1897 after 48 hrs by microtiter plate assay. The class given is functional, organism-based. To be noted: DSM 1897, 48 h.
The test system of a further experiment is Xanthomonas campestris. Put plainly: Antibacterial activity against Xanthomonas campestris DSM 2405 after 14-16 hrs by microtiter plate assay. To be noted: DSM 2405, 14-16 h.
Another experiment deals with Mammaliicoccus lentus. Nature of the experiment: Antibacterial activity against Staphylococcus lentus DSM 6672 after 14-16 hrs by microtiter plate assay. The conditions noted are these: DSM 6672, 14-16 h.
The next experiment relates to Bacillus subtilis. Nature of the experiment: Antibacterial activity against Bacillus subtilis DSM 347 after 14-16 hrs by microtiter plate assay. To be noted: DSM 347, 14-16 h.
Another experiment deals with Pseudomonas aeruginosa. Put plainly: Antibacterial activity against Pseudomonas aeruginosa DSM 50071 after 14-16 hrs by microtiter plate assay. The conditions noted are these: DSM 50071, 14-16 h.
Experiment [1] can be described thus: Cytotoxicity against human PAXF 1657L cells by modified propidium iodide monolayer assay.
The nature of experiment [2]: Cytotoxicity against human GXF251L cells after 24 hrs by propidium iodide monolayer assay. To be noted: GXF 251L.
The nature of experiment [3]: Cytotoxicity against human LXFL529 cells after 24 hrs by propidium iodide monolayer assay. To be noted: LXFL 529, 24 h.
Experiment [4] can be described thus: Cytotoxicity against human RXF 486L cells by modified propidium iodide monolayer assay.
Experiment [5] can be described thus: Cytotoxicity against human MAXF 401NL cells after 24 hrs by propidium iodide monolayer assay.
Experiment [6] is described as follows: Cytotoxicity against human MEXF 462NL cells by modified propidium iodide monolayer assay.
The next experiment relates to Staphylococcus aureus. Nature of the experiment: Antibacterial activity against Staphylococcus aureus ATCC 12600 after 48 hrs by microtiter plate assay. The format is functional, organism-based. To be noted: ATCC 12600, 48 h.
A further experiment has as its system HT-29. Nature of the experiment: Cytotoxicity against human HT-29 cells after 24 hrs by CellTiter-BlueCell viability assay. The class given is functional, cell-based. The conditions noted are these: HT-29, 24 h.
Experiment [7] deals with Brevibacterium epidermidis. Nature of the experiment: Antibacterial activity against Brevibacterium epidermidis DSM 20660 after 14-16 hrs by microtiter plate assay. The conditions noted are these: DSM 20660, 14-16 h.
The next experiment deals with Dermabacter hominis. Nature of the experiment: Antibacterial activity against Dermabacter hominis DSM 7083 after 24 hrs by microtiter plate assay. The conditions noted are these: DSM 7083, 24 h.

As for `O=C(N[C@H](CO)[C@H](O)c1ccc([N+](=O)[O-])cc1)C(Cl)Cl` [CHLORAMPHENICOL], the IC50 with Cutibacterium acnes was determined as 1000 nM; in the experiment with Xanthomonas campestris it was 3600 nM; in the experiment on Mammaliicoccus lentus it was 2300 nM; in the experiment with Bacillus subtilis it was 9000 nM; in the experiment with Pseudomonas aeruginosa it was 27300 nM.

With `COc1cccc2c1C(=O)c1c(O)c3c(c(O)c1C2=O)C[C@@](O)(C(=O)CO)C[C@@H]3O[C@H]1C[C@H](N)[C@H](O)[C@H](C)O1` [DOXORUBICIN], the IC50 in experiment [1] is less than 52 nM; in experiment [2], less than 52 nM; in experiment [3] it was less than 52 nM; in experiment [4] it was no more than 52 nM; in experiment [5], less than 52 nM; in experiment [6], less than 52 nM.

Compound `COc1c(N2C[C@@H]3CCCN[C@@H]3C2)c(F)cc2c(=O)c(C(=O)O)cn(C3CC3)c12` [MOXIFLOXACIN] showed an IC50 with Staphylococcus aureus of 7500 nM.

With `CC/C(=C(\c1ccccc1)c1ccc(OCCN(C)C)cc1)c1ccccc1` [TAMOXIFEN], the IC50 with HT-29 is 38600 nM.

For `CN(C)[C@@H]1C(O)=C(C(N)=O)C(=O)[C@@]2(O)C(O)=C3C(=O)c4c(O)cccc4[C@@](C)(O)[C@H]3C[C@@H]12` [TETRACYCLINE], the figures for the IC50 (in experiment [7]; in the experiment with Dermabacter hominis) were 13900 nM and 1200 nM, respectively.
